Data from publication PMC9504056, “A Novel L-Phenylalanine Dipeptide Inhibits the Growth and Metastasis of Prostate Cancer Cells via Targeting DUSP1 and TNFSF9” (International Journal of Molecular Sciences, 2022).

Legend:
[1] = target: T1, TNFSF9 (Homo sapiens, UniProt P41273); assay: cellular thermal shift assay (CETSA), Western blot; format: cell-based; settings: PC3 cells treated 2 h with 0.01-100 µmol/L; heated at 53 °C for 3 min
T1 construct: endogenous protein in human PC3 prostate cancer cells, detected by Western blot (Abcam ab68185)
T1 sequence (P41273 whole entry): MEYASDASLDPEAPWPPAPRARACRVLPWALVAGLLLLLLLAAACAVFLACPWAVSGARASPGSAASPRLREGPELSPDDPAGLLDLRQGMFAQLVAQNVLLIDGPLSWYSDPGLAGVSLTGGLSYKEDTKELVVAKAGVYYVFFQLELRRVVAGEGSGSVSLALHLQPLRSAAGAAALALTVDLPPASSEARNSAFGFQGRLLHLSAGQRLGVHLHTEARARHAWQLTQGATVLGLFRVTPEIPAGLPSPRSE

[2] = target: T2, DUSP1 (Homo sapiens, UniProt P28562); assay: cellular thermal shift assay (CETSA), Western blot; format: cell-based; settings: PC3 cells treated 2 h with 0.01-100 µmol/L; heated at 53 °C for 3 min
T2 construct: endogenous protein in human PC3 prostate cancer cells, detected by Western blot (Abcam ab61201)
T2 sequence (P28562 1-367): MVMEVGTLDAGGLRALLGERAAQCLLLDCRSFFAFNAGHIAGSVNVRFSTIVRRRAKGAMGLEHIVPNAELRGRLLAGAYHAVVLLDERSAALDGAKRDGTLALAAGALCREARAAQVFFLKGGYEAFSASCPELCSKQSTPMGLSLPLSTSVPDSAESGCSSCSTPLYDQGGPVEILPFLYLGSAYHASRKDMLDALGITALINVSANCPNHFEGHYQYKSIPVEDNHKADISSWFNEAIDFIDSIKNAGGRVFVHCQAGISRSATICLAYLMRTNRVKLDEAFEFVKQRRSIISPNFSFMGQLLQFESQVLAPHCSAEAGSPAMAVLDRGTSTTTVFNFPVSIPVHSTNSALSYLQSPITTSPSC

CCN(CC)CCOc1ccc(C[C@H](NC(=O)c2ccc(OCc3ccccc3)cc2)C(=O)N[C@H](CO)Cc2ccccc2)cc1 [HXL131]
cellular thermal shift assay (CETSA), Western blot [1]: HXL131 could stably bind DUSP1 and TNFSF9 proteins
cellular thermal shift assay (CETSA), Western blot [2]: HXL131 could stably bind DUSP1 and TNFSF9 proteins
